# Measurements as given in patent publication US9585964B2, “Liver targeted conjugates” (President and Fellows of Harvard College, priority 2005, dated 2017).
# Tested on: hepatic injury induced by carbon tetrachloride (CCl4)
# Assay: mouse model of hepatic injury induced by carbon tetrachloride (CCl4); serum ALT and AST
# Type: in vivo
# Conditions: ICR mice; for increase in serum ALT compared to the vehicle control / increase in serum AST compared to the vehicle control: CCl4
# Protocol: An indomethacin-simvastatin conjugate (Ind-S) and lovastatin alone were evaluated for possible hepatoprotective activity in a mouse model of hepatic injury induced by carbon tetrachloride (CCl4). Ind-S at 0.5, 1 and 5 μmol/kg and lovastatin at 30 mg/kg were each administered intraperitoneally 0.5 hour before and at 4 and 8 hours after CCl4 challenge. The degree of hepatic injury was manifested by increases in alanine aminotransferase (ALT) and aspartate aminotransferase (AST) levels relative to the vehicle-treated animals. A decrease of 30% or more in serum ALT or AST is considered significant protective activity. The test substances were provided at the indicated concentrations. […] The test substances were administered intraperitoneally at 0.5 hour before and 4 and 8 hours after CCl4 administration to test mice. The dosing volume was 5 mL/kg. Male ICR derived mice weighing 24±2 g and provided by BioLasco Taiwan, a Charles River Laboratories Technology Licensee, were used in the study Space allocation for animals was 29×18×13 cm for 10 mice. The animals were housed in APEC^R cages. All animals were maintained in a hygienic environment under controlled temperature (22-24° C.) and humidity (60%-70%) with 12 hours light/dark cycles for at least one week prior to use with free access to standard lab chow (LabDiet Rodent Diet, PMI Nutrition International, USA) and tap water. Seven groups of five ICR derived male mice (weighing 24±2 g) were used. Each animal was challenged with a single dose of carbon tetrachloride (CCl4, 0.1 mL/kg in 50% olive oil, PO). The test substances were administered intraperitoneally at 30 minutes before and 4, 8 hours after carbon tetrachloride challenge and the animals were sacrificed 24 hours later. Serum alanine aminotransferase (ALT) and aspartate aminotransferase (AST) levels were measured by optimized UV method using a HITACHI automatic analyzer (model 7050). Silymarin (300 mg/kg, PO) as the positive control agent was administered orally to test animals at the same time.
compound,measurement,setting,value
"COc1ccc2c(c1)c(CC(=O)OCCNC(=O)CCC(C)(C)C(=O)O[C@H]1C[C@@H](C)C=C3C=C[C@H](C)[C@H](CC[C@@H]4C[C@@H](O)CC(=O)O4)[C@H]31)c(C)n2C(=O)c1ccc(Cl)cc1 [Ind-S, 6(R)-[2-[8(S)-{4-(2-{2-[1-(4-Chloro-benzoyl)-5-methoxy-2-methyl-1H-indol-3-yl]-acetoxy}-ethylcarbamoyl)-2,2-dimethyl-butyryloxy}-2(S),6(R)-dimethyl-1,2,6,7,8,8,a(R)-hexahydronaphthyl-1(S)]ethyl]-4(R)-hydroxy-3,4,5,6-tetrahydro-2H-Pyran-2-one]",reduction in serum ALT level relative to the vehicle-treated group,"5 μmol/kg IP, 0.5 h before and 4 and 8 h after CCl4, non-significant",21%
same,reduction of AST activity relative to the vehicle-treated group,"5 μmol/kg IP, 0.5 h before and 4 and 8 h after CCl4, serum at 24 h",34%
COc1ccc2c(c1)c(CC(=O)O)c(C)n2C(=O)c1ccc(Cl)cc1 [indomethacin],increase in serum ALT compared to the vehicle control,5 μmol/kg IP,39%
same,increase in serum AST compared to the vehicle control,5 μmol/kg IP,73%
CC[C@H](C)C(=O)O[C@H]1C[C@@H](C)C=C2C=C[C@H](C)[C@H](CC[C@@H]3C[C@@H](O)CC(=O)O3)[C@H]21 [Lovastatin],increase in serum ALT compared to the vehicle control,30 mg/kg IP,17%
same,increase in serum AST compared to the vehicle control,30 mg/kg IP,38%
